{"source": "ChEMBL document CHEMBL1146649", "about": "“New highly active taxoids from 9 beta-dihydrobaccatin-9,10-acetals. Part 5” (2004)", "key": {"Mus musculus [1]": {"tested_on": "Mus musculus", "assay": "Maximum rate of body weight loss after intravenous administration of 11.9 mg/kg of compound in mice; <0 indicates no weight loss", "type": "functional"}, "Mus musculus [2]": {"tested_on": "Mus musculus", "assay": "Maximum rate of body weight loss after intravenous administration of 17.8 mg/kg of compound in mice", "type": "functional"}, "Mus musculus [3]": {"tested_on": "Mus musculus", "assay": "Maximum rate of body weight loss after peroral administration of 17.8 mg/kg of compound in mice", "type": "functional", "conditions": "route oral"}, "Mus musculus [4]": {"tested_on": "Mus musculus", "assay": "Maximum rate of body weight loss after peroral administration of 26.7 mg/kg of compound in mice", "type": "functional", "conditions": "route oral"}, "Mus musculus [5]": {"tested_on": "Mus musculus", "assay": "Effective dose of intravenously administered compound against B16 melanoma BL6 cells implanted into mice; range is 11.9-17.8", "type": "functional", "conditions": "B16, iv"}, "Mus musculus [6]": {"tested_on": "Mus musculus", "assay": "Maximum rate of body weight loss after peroral administration of 7.9 mg/kg of compound in mice", "type": "functional", "conditions": "route oral"}, "B16 [7]": {"tested_on": "B16", "assay": "Antitumor activity of 11.9 mg/kg of intravenously administered compound against B16 melanoma BL6 cells implanted into mice, value reported is percent compared to control", "type": "functional, Mus musculus", "conditions": "route intravenous"}, "B16 [8]": {"tested_on": "B16", "assay": "Antitumor activity of 11.9 mg/kg of perorally administered compound against B16 melanoma BL6 cells implanted into mice, value reported is percent compared to control", "type": "functional, Mus musculus", "conditions": "route oral"}, "Mus musculus [9]": {"tested_on": "Mus musculus", "assay": "Antitumor activity of 17.8 mg/kg of intravenously administered compound against B16 melanoma BL6 cells implanted into mice, value reported is percent compared to control", "type": "functional", "conditions": "route intravenous"}, "B16 [10]": {"tested_on": "B16", "assay": "Antitumor activity of 17.8 mg/kg of perorally administered compound against B16 melanoma BL6 cells implanted into mice, value reported is percent compared to control", "type": "functional, Mus musculus", "conditions": "route oral"}, "Mus musculus [11]": {"tested_on": "Mus musculus", "assay": "Antitumor activity of 26.7 mg/kg of perorally administered compound against B16 melanoma BL6 cells implanted into mice, value reported is percent compared to control", "type": "functional", "conditions": "route oral"}, "Mus musculus [12]": {"tested_on": "Mus musculus", "assay": "Antitumor activity of 7.9 mg/kg of intravenously administered compound against B16 melanoma BL6 cells implanted into mice, value reported is percent compared to control", "type": "functional", "conditions": "route intravenous"}, "Mus musculus [13]": {"tested_on": "Mus musculus", "assay": "Antitumor activity of 7.9 mg/kg of perorally administered compound against B16 melanoma BL6 cells implanted into mice, value reported is percent compared to control", "type": "functional", "conditions": "route oral"}, "Mus musculus [14]": {"tested_on": "Mus musculus", "assay": "Maximum rate of body weight loss after intravenous administration of 7.9 mg/kg of compound in mice", "type": "functional"}, "Mus musculus [15]": {"tested_on": "Mus musculus", "assay": "Maximum rate of body weight loss after peroral administration of 11.9 mg/kg of compound in mice; <0 indicates no weight loss", "type": "functional", "conditions": "route oral"}, "Mus musculus [16]": {"tested_on": "Mus musculus", "assay": "Effective dose of perorally administered compound against B16 melanoma BL6 cells implanted into mice; range is 11.9-17.8", "type": "functional", "conditions": "B16, po"}, "Mus musculus [17]": {"tested_on": "Mus musculus", "assay": "Number of mice died at 11.9 mg/kg of intravenous dose, among the total 6 mice tested", "type": "functional"}, "Mus musculus [18]": {"tested_on": "Mus musculus", "assay": "Number of mice died at 11.9 mg/kg of peroral dose, among the total 6 mice tested", "type": "functional", "conditions": "route oral"}, "Mus musculus [19]": {"tested_on": "Mus musculus", "assay": "Number of mice died at 17.8 mg/kg of intravenous dose among the total 6 mice tested", "type": "functional"}, "Mus musculus [20]": {"tested_on": "Mus musculus", "assay": "Number of mice died at 17.8 mg/kg of peroral dose among the total 6 mice tested", "type": "functional", "conditions": "route oral"}, "Mus musculus [21]": {"tested_on": "Mus musculus", "assay": "Number of mice died at 26.7 mg/kg of intravenous dose of compound among the total 6 mice tested", "type": "functional"}, "Mus musculus [22]": {"tested_on": "Mus musculus", "assay": "Number of mice died at 26.7 mg/kg of peroral dose of compound among the total 6 mice tested", "type": "functional", "conditions": "route oral"}, "Mus musculus [23]": {"tested_on": "Mus musculus", "assay": "Number of mice died at 7.9 mg/kg of intravenous dose of compound among the total 6 mice tested", "type": "functional"}, "Mus musculus [24]": {"tested_on": "Mus musculus", "assay": "Number of mice died at 7.9 mg/kg of peroral dose of compound among the total 6 mice tested", "type": "functional", "conditions": "route oral"}, "P388": {"tested_on": "P388", "assay": "Concentration required to inhibit mouse P388 cell line growth by 50% at 72 hr continuous exposure", "type": "functional", "conditions": "P388, 72 h"}, "PC-6 [25]": {"tested_on": "PC-6", "assay": "Concentration required to inhibit human PC-6 cell line growth by 50% at 72 hr continuous exposure", "type": "functional", "conditions": "PC-6, 72 h"}, "PC-6 [26]": {"tested_on": "PC-6", "assay": "Concentration required to inhibit human PC-6/VP1-1 cell line growth by 50% at 72 hr exposure", "type": "functional", "conditions": "PC-6, 72 h"}, "PC-12": {"tested_on": "PC-12", "assay": "Concentration required to inhibit human PC-12 cell line growth by 50% at 72 hr continuous exposure", "type": "functional", "conditions": "PC-12, 72 h"}, "PC-6 [27]": {"tested_on": "PC-6", "assay": "Concentration required to inhibit human PC-6/VCR29-9 cell line growth by 50% at 72 hr exposure", "type": "functional", "conditions": "PC-6, 72 h"}}}
{"smiles": "CC(=O)O[C@@]12CO[C@@H]1CC[C@@]1(C)[C@@H]3O[C@H](CN4CCOCC4)O[C@@H]3C3=C(C)[C@@H](OC(=O)[C@H](O)[C@@H](NC(=O)OC(C)(C)C)c4cccc(F)n4)C[C@@](O)([C@@H](OCc4ccccc4)[C@@H]12)C3(C)C", "values": [{"measurement": "BWLmax", "setting": "Mus musculus [1]", "result": "<0", "unit": "%"}, {"measurement": "BWLmax", "setting": "Mus musculus [2]", "result": 11.9, "unit": "%"}, {"measurement": "BWLmax", "setting": "Mus musculus [3]", "result": 2.2, "unit": "%"}, {"measurement": "BWLmax", "setting": "Mus musculus [4]", "result": 16.6, "unit": "%"}, {"measurement": "ED50", "setting": "Mus musculus [5]", "result": 17.8, "unit": "mg/kg"}, {"measurement": "BWLmax", "setting": "Mus musculus [6]", "result": 0.8, "unit": "%"}, {"measurement": "IR", "setting": "B16 [7]", "result": 85.7, "unit": "%"}, {"measurement": "IR", "setting": "B16 [8]", "result": 65.9, "unit": "%"}, {"measurement": "IR", "setting": "Mus musculus [9]", "result": 94.7, "unit": "%"}, {"measurement": "IR", "setting": "B16 [10]", "result": 88.5, "unit": "%"}, {"measurement": "IR", "setting": "Mus musculus [11]", "result": 97.4, "unit": "%"}, {"measurement": "IR", "setting": "Mus musculus [12]", "result": 28.6, "unit": "%"}, {"measurement": "IR", "setting": "Mus musculus [13]", "result": -16.3, "unit": "%"}, {"measurement": "BWLmax", "setting": "Mus musculus [14]", "result": 0.3, "unit": "%"}, {"measurement": "BWLmax", "setting": "Mus musculus [15]", "result": "<0", "unit": "%"}, {"measurement": "ED50", "setting": "Mus musculus [16]", "result": 17.8, "unit": "mg/kg"}, {"measurement": "Mortality", "setting": "Mus musculus [17]", "result": 0}, {"measurement": "Mortality", "setting": "Mus musculus [18]", "result": 0}, {"measurement": "Mortality", "setting": "Mus musculus [19]", "result": 0}, {"measurement": "Mortality", "setting": "Mus musculus [20]", "result": 0}, {"measurement": "Mortality", "setting": "Mus musculus [21]", "result": 6}, {"measurement": "Mortality", "setting": "Mus musculus [22]", "result": 1}, {"measurement": "Mortality", "setting": "Mus musculus [23]", "result": 0}, {"measurement": "Mortality", "setting": "Mus musculus [24]", "result": 0}, {"measurement": "GI50", "setting": "P388", "result": 0.2, "unit": "ng/mL"}, {"measurement": "GI50", "setting": "PC-6 [25]", "result": 0.29, "unit": "ng/mL"}, {"measurement": "GI50", "setting": "PC-6 [26]", "result": 13.7, "unit": "ng/mL"}, {"measurement": "GI50", "setting": "PC-12", "result": 0.14, "unit": "ng/mL"}, {"measurement": "GI50", "setting": "PC-6 [27]", "result": 0.96, "unit": "ng/mL"}]}
